{
  "source": "patent EP4603504A1",
  "about": "“NOVEL CATHEPSIN K AND L INHIBITORS” (ECOLE POLYTECHNIQUE FEDERALE DE LAUSANNE (EPFL), priority 2024, dated 2025)",
  "key": {"[1]": {"test_system": "panel of 7 different cysteine cathepsin proteases", "test": "FRET assays on a panel of cathepsins (selectivity)", "format": "biochemical", "settings": "profiled against five additional cathepsins (Fig. 1)", "excerpt": "The figures show. • Figure 1. […] A schematic representation of the structure of the NNPI is given to the left."}, "[2]": {"test": "Solubility (remark in text, no method)", "format": "physicochemical"}, "CTSL [3]": {"biological_target": "T1, CTSL (Homo sapiens, UniProt P07711)", "T1 construct": "purchased R&D systems 952-CY-010", "T1 sequence (P07711 114-333)": "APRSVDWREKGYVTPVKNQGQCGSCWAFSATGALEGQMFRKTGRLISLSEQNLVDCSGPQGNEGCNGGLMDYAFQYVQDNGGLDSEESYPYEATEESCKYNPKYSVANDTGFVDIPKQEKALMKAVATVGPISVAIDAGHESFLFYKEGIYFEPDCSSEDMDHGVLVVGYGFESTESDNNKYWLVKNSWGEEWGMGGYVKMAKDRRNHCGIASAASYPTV", "test": "FRET assay cathepsin L", "format": "biochemical", "settings": "result in words, compared with other NNPIs (Fig 2h-j)", "description": "(§1) In brief, CTSK or CTSL was diluted to 20 µg/ml or 40 µg/ml respectively, in Assay Buffer (50 mM MES, 5 mM DTT, 1 mM EDTA, 0.005% (w/v) Brij-35, pH 6.0), and incubated on ice for 15 minutes. After activation, CTSK or CTSL was diluted to 0.02 µg/ml in Assay Buffer. The substrate peptide Z-Leu-Arg-AMC (R&D systems, cat #ES008) was then diluted to 20 µM in Assay buffer (40 µM for CTSL).\n(§2) Next, 50 µl of the enzyme solution was loaded in a 96-well plate, inhibitors to be tested were added to the enzyme and incubated for 30 minutes, and then the reaction was started by adding 50 µl of the fluorogenic substrate. A substrate blank containing 50 µl of Assay Buffer and 50 µl of substrate without any cathepsin was included. Fluorescent emission was measured with SpectraMax iD3 (Molecular Devices) in kinetic mode for 60 minutes (excitation: 380 nm, emission: 460 nm).\nA library of 32 NNPIs was screened by FRET assay on CTSK and CTSL by using 384-well plates. For each of the amino acid positions from 2 to 7 in the original NNPI-E15 structure, 6 different amino acid substitutions were tested (A, L, T, W, E or R). The final concentrations of enzyme and substrate were the same as the ones described above for the respective FRET assays. The final reaction volume per well was 20 µl. The inhibitor concentration was 30 nM. Fluorescent emission was measured with a BioTek Neo HTS plate reader."}, "CTSL [4]": {"biological_target": "T1, CTSL", "test": "FRET assay on cathepsin L (CTSL)", "format": "biochemical", "settings": "substrate Z-Leu-Arg-AMC, inhibitor preincubated 30 minutes, n=3", "description": "as §1, §2"}},
  "note": "Peptide text beside a SMILES is read from it.",
  "data": [
    {"compound": "CC[C@H](C)[C@H](NC(=O)[C@@H](NC(=O)/C=C/CNC(=O)[C@H](CC(C)C)NC(=O)[C@H](CCCNC(=N)N)NC(=O)[C@H](CCCNC(=N)N)NC(=O)[C@@H](N)CCCCN)C(C)C)C(=O)N[C@@H](CCCNC(=N)N)C(N)=O", "note": "[NNPI-F17, KRRL(Y)VIR] (HELM PEPTIDE1{K.R.R.L.[O=C(/C=C/CN[*:1])[*:2]].V.I.R.[am]}$$$$V2.0; N-terminus and C-terminus assumed)", "values": [
      {"measurement": "selectivity", "setting": "[1]", "value": "good selectivity"}
    ]},
    {"compound": "KRLW(Y)VMW [NNPI-G12] [listing 1 of 2 here]", "values": [
      {"measurement": "solubility", "setting": "[2]", "value": "poor"}
    ]},
    {"compound": "KRLW(Y)VMW [NNPI-G12] [listing 2 of 2 here]", "values": [
      {"measurement": "inhibitory potency on CTSL", "setting": "CTSL [3]", "value": "most potent inhibitor"}
    ]},
    {"compound": "CC(C)C[C@H](NC(=O)[C@H](CCCNC(=N)N)NC(=O)[C@@H](N)CCCCN)C(=O)N[C@@H](Cc1c[nH]c2ccccc12)C(=O)NC/C=C/C(=O)N[C@H](C(=O)N[C@@H](CC(C)C)C(=O)N[C@@H](Cc1c[nH]c2ccccc12)C(N)=O)C(C)C", "note": "[NNPI-G14, KRLW(Y)VLW] (HELM PEPTIDE1{K.R.L.W.[O=C(/C=C/CN[*:1])[*:2]].V.L.W.[am]}$$$$V2.0)", "values": [
      {"measurement": "selectivity", "setting": "[1]", "value": "good selectivity"},
      {"measurement": "IC50", "setting": "CTSL [4]", "value": 1.7, "unit": "nM"}
    ]}
  ]
}
